Consider 3 compounds from US20190048365A1, “MITOCHONDRIAL MICROINJECTION OF OOCYTES” (Eastern Virginia Medical School, priority 2015, published 2019).

For assay [1], the system named is isolated human platelet mitochondria. In words: ATP levels in isolated mitochondria incubated with supplement (chemiluminescence assay). The format is biochemical. The note with it: 2.0 micromolar (maximum increase). As to the method:
Experiment: Aliquots of isolated human platelet mitochondria were incubated for different amounts of time in the presence of differing concentrations of L-carnitine, a compound known to stimulate the uptake and metabolism of fat molecules for use by the mitochondria to produce ATP. Along the X-axis of this graph, the numbers 1, 2, 3, and 4 refer to 0, 0.2 micromolar, 2.0 micromolar, and 20 micromolar concentrations of L-carnitine in the mitochondrial incubation buffer. The mitochondrial aliquots in hatched columns (Series 1) were incubated for 20 minutes in the presence of the L-carnitine while the mitochondrial aliquots in non-hatched columns (Series 2) were incubated for 60 minutes in the presence of L-carnitine. After these incubation times, the samples were processed to measure ATP by a very sensitive chemiluminescence assay.

The next assay has as its system purified human platelets. In words: Fluo-4 staining of purified platelets (platelet activation). The format is cell-based. As to conditions: Fluo-4, with 2 mM calcium chloride. The text has this:
FIGS. 6A and 6B provide further evidence of the functionality of the purified human platelets. […] Dull green fluorescence indicates functional but inactivated platelets. To activate platelets so they can begin to aggregate to initiate the blood clotting process, calcium ions should be at a significant concentration within the platelet cytoplasm.

Assay [2] has as its system inner mitochondrial membrane potential of human platelets. The note with it: JC-1 2 μM, purified human platelets.
Procedure: In FIG. 5A, platelets are stained with mitochondrial inner membrane sensitive dye JC-1(2 μM) (630× magnification). […] The red stained mitochondria reflect mitochondria with a Wm capable of supporting ATP production. […] FCCP is an uncoupler, a chemical that destroys the inner mitochondrial membrane potential Wm.

Turning to `C[N+](C)(C)C[C@H](O)CC(=O)[O-]` [L-carnitine], the “increase in ATP levels” value was determined as 47% in assay [1] (20 minute incubation (Series 1)) and 80% in assay [1] (60 minute incubation (Series 2)).

As for `CNc1ccc2oc(C[C@H]3O[C@@]4(CC[C@H]3C)O[C@H]([C@H](C)C(=O)c3ccc[nH]3)[C@H](C)C[C@H]4C)nc2c1C(=O)O` [A23187], the “effect on Fluo-4 green fluorescence (platelet activation)” value in the assay on purified human platelets is “much more intense green fluorescence”.

Regarding `N#CC(C#N)=NNc1ccc(OC(F)(F)F)cc1` [FCCP, Carbonyl cyanide-4-(trifluoromethoxy)phenylhydrazone], in assay [2], the “effect on JC-1 red fluorescence (functional mitochondria)” value is “elimination of the red fluorescence”.
